Data: ChEMBL document CHEMBL1131817, “Structure-based design of irreversible, tripeptidyl human rhinovirus 3C protease inhibitors containing N-methyl amino acids” (Bioorg Med Chem Lett, 1999)

What was measured:
Human rhinovirus sp. [1] = experiment: In vitro antiviral activity against HRV serotype-14; format: functional, organism-based
[2] = target: T1, Human rhinovirus A protease (Human rhinovirus sp.) (UniProt Q4U254); experiment: Inhibitory activity against Human RhinoVirus serotype-14 3C Protease; format: functional; details: rhinovirus B14
T1 sequence (whole entry): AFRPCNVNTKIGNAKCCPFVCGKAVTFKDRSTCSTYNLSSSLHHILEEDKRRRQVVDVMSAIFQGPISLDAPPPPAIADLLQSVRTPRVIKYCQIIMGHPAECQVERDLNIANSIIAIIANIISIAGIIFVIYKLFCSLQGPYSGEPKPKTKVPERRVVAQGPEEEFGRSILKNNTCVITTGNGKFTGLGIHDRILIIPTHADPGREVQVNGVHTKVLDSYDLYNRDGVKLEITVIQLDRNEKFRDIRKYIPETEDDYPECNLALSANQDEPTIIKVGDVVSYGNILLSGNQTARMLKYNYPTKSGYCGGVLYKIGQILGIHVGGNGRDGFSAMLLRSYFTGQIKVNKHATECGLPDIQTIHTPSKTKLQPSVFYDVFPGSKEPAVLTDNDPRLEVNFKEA

Human rhinovirus sp. [3] = experiment: Inhibitory activity against Human RhinoVirus serotype-14 3C Protease; NI means No inhibition to 50 uM; format: functional, organism-based

Compound | EC50 (Human rhinovirus sp. [1]) | k obs / 1 [2] | k obs / 1 (Human rhinovirus sp. [3])
CCOC(=O)/C=C/[C@H](CCC(N)=O)NC(=O)[C@H](Cc1ccc(F)cc1)N(C)C(=O)[C@H](Cc1c[nH]cn1)NC(=O)c1cc(C)on1 | 1800 nM | 66000 M⁻¹ s⁻¹ | –
CCOC(=O)/C=C/[C@H](CCC(N)=O)NC(=O)[C@H](Cc1ccc(F)cc1)N(C)C(=O)[C@H](Cc1ccc2ccccc2c1)NC(=O)c1cc(C)on1 | 160 nM | 144000 M⁻¹ s⁻¹ | –
CCOC(=O)/C=C/[C@H](CCC(N)=O)NC(=O)[C@H](Cc1ccccc1)NC(=O)[C@H](CC(C)C)NC(=O)OCc1ccccc1 | 540 nM | 25000 M⁻¹ s⁻¹ | –
CCOC(=O)/C=C/[C@H](CCC(N)=O)NC(=O)[C@H](Cc1ccccc1)N(C)C(=O)[C@H](CC(C)C)NC(=O)SC1CCCC1 | 320 nM | 17300 M⁻¹ s⁻¹ | –
CCOC(=O)/C=C/[C@H](CCC(N)=O)NC(=O)[C@H](Cc1ccccc1)N(C)C(=O)[C@H](CC(C)C)NC(=O)OCc1ccccc1 | 1000 nM | 5300 M⁻¹ s⁻¹ | –
CCOC(=O)/C=C/[C@H](C[C@@H]1CCCNC1=O)NC(=O)[C@H](Cc1ccc(F)cc1)N(C)C(=O)[C@H](CC(C)C)NC(=O)c1cc(C)on1 | 30 nM | 610000 M⁻¹ s⁻¹ | –
CCOC(=O)/C=C/[C@H](CCC(N)=O)NC(=O)[C@H](Cc1ccccc1)N(C)C(=O)[C@@H](NC(=O)SC1CCCC1)C(C)C | 190 nM | 22500 M⁻¹ s⁻¹ | –
CCOC(=O)/C=C/[C@H](CCC(N)=O)NC(=O)[C@H](Cc1ccccc1)N(C)C(=O)[C@H](CC(C)C)NC(=O)c1cc(C)on1 | 140 nM | 108000 M⁻¹ s⁻¹ | –
CCOC(=O)/C=C/[C@H](CCC(N)=O)NC(=O)[C@H](Cc1ccccc1)N(C)C(=O)[C@H](CSc1ccccc1)NC(=O)SC1CCCC1 | 540 nM | 36800 M⁻¹ s⁻¹ | –
CCOC(=O)/C=C/[C@H](CCC(N)=O)NC(=O)[C@H](Cc1ccc(F)cc1)N(C)C(=O)[C@H](CC(C)C)NC(=O)c1cc(C)on1 | 400 nM | 59300 M⁻¹ s⁻¹ | –
CCOC(=O)/C=C/[C@H](CCC(N)=O)N(C)C(=O)[C@H](Cc1ccccc1)NC(=O)[C@H](CC(C)C)NC(=O)OCc1ccccc1 | – | – | No inhibition
CCOC(=O)/C=C/[C@H](CCC(N)=O)NC(=O)[C@H](Cc1ccc(F)cc1)N(C)C(=O)[C@H](Cc1cccc2ccccc12)NC(=O)c1cc(C)on1 | 200 nM | 95800 M⁻¹ s⁻¹ | –
CCOC(=O)/C=C/[C@H](CCC(N)=O)NC(=O)[C@H](Cc1ccccc1)NC(=O)[C@H](CC(C)C)N(C)C(=O)OCc1ccccc1 | – | 100 M⁻¹ s⁻¹ | –
